Measured values from patent US20130252930A1 (BIOMARIN PHARMACEUTICAL INC., priority 2010, published 2013).

How the values were obtained:
[1] = target: T1, CYP17 (human testicular microsome) (Homo sapiens, UniProt P05093); assay: CYP17 enzymatic assay (% inhibition at 1 nM) (Biological Example 12); format: biochemical; conditions: compound at 1 nM, read-out: Biological Example No. 12: CYP17 enzymatic assay % inhibition at 1 nM
T1 construct: using microsomal fraction from human testis (Celsis Cat #S00110) as the enzyme source; tissue Celsis S00110; host or cells: human testis microsomal fraction
T1 sequence (P05093 1-508): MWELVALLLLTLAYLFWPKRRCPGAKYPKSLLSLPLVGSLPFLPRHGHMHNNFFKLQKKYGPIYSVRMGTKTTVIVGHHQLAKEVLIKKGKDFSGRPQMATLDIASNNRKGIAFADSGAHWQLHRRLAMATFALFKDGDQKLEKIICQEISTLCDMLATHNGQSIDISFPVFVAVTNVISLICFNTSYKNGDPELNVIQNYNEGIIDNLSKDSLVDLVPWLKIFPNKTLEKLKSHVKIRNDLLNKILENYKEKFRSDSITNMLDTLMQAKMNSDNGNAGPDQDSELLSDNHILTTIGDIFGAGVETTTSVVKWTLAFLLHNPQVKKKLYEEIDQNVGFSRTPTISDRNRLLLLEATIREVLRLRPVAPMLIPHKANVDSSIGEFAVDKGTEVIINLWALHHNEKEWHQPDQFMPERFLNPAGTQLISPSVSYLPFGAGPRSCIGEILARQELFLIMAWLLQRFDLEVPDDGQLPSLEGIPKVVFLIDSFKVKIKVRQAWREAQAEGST

[2] = target: T2, Cyp21 enzyme (Human HEK 293-Cyp21 stable transfected cells) (Homo sapiens, UniProt P08686); assay: CYP21-HEK293 enzymatic assay (IC50) (Biological Example 11); format: cell-based; conditions: HEK 293-Cyp21 cells; read-out: Biological Example No. 11: CYP21-HEK293 enzymatic assay IC50
T2 construct: expressed in transfected cells
T2 sequence (P08686 1-495): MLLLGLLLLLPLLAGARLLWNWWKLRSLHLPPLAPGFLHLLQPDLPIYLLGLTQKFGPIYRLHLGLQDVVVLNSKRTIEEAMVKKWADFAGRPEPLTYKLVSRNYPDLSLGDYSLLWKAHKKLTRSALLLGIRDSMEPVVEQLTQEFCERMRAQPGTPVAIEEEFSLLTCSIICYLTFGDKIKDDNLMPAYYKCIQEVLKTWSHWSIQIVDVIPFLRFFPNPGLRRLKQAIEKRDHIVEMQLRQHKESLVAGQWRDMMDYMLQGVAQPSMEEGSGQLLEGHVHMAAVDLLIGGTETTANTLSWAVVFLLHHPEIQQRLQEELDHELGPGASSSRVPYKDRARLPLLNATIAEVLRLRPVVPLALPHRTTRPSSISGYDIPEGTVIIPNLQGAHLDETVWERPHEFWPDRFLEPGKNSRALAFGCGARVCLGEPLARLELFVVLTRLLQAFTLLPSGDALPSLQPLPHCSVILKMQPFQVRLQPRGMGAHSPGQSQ
Method: This assay was used to determine compound activity against Cyp21 enzyme. […] The next day, 20 μL medium was carefully removed and 10 μL of 10× pre-made compounds in DMEM+10% FBS+10% methanol was transferred to the wells to final concentrations of 1000, 100, 10, 1, or 0.1 nM. Mock treatment was 1% methanol in growth media and the cells were left at 37° C., 5% CO2 for 5 hr. After the incubation, 10 μL of substrate progesterone (Sigma) was added to the wells to make a final concentration of 10 μM. The cells were incubated the cells at 37° C. for 20 hr. At the end of incubation, 90 μL of conditioned media was removed to measure DOC level by ELISA.
The next day, the plates were washed twice with 250 μl of wash solution (0.015M PBS pH 7.4 containing 0.05% Tween 20). After being washed, the wells were blocked with 250 μL blocking buffer (3% BSA in 0.025M PBS, pH 7.4) at 37° C. for 2 h. The plates were washed again 3 times as before, and then 90 μL of sample /standards (prepared in complete growth media) was added into the appropriate wells followed by 10 μL of antibody solution (1:450 rabbit anti-DOC in 0.6% BSA/PBS). The plates were incubated at room temperature for 2 h on a shaker. The contents of the wells were removed and the plate was washed 4 times. After the final wash, 100 μL of secondary antibody (1:12000 HRP-goat-anti-rabbit IgG conjugate 0.6% BSA/PBS) was added into each well. […] The plate was washed again 4 times and 100 μL of TMB substrate solution was added to each well. The plate was incubated at room temperature for 10 min. 100 μL of stop solution was added to each well and the optical density was read at 450 nm.
The mean absorbance value for each sample was used to determine the corresponding concentration from the standard curve. Data was analyzed with “log(antagonist) vs response variable slope” under “non-linear regression analysis” using Prism5 software.

Structure (SMILES) | inhibition at 0.001 µM [1] | IC50 [2]
CCC1CC2C(CC[C@]3(C)C(c4cccnc4)=CCC23)[C@@]2(C)CCC(=O)C=C12 (stereo partly drawn) [Compound 332, (10R,13S)-6-ethyl-10,13-dimethyl-17-(pyridin-3-yl)-6,7,8,9,10,11,12,13,14,15-decahydro-1H-cyclopenta[a]phenanthren-3(2H)-one] | 10 to 50% | 10 to 100 nM
CCC1CC2C(CC[C@]3(C)C(c4cncc(F)c4)=CCC23)[C@@]2(C)CCC(=O)C=C12 (stereo partly drawn) [Compound 333, (10R,13S)-6-ethyl-17-(5-fluoropyridin-3-yl)-10,13-dimethyl-6,7,8,9,10,11,12,13,14,15-decahydro-1H-cyclopenta[a]phenanthren-3(2H)-one] | < 10% | > 1000 nM
CCC1CC2C(CC[C@]3(C)C(c4cncc(C(F)F)c4)=CCC23)[C@@]2(C)CCC(=O)C=C12 (stereo partly drawn) [Compound 334, (10R,13S)-17-(5-(difluoromethyl)pyridin-3-yl)-6-ethyl-10,13-dimethyl-6,7,8,9,10,11,12,13,14,15-decahydro-1H-cyclopenta[a]phenanthren-3(2H)-one] | < 10% | > 1000 nM
C[C@]12CCC(=O)C=C1C(n1ccnn1)CC1C2CC[C@]2(C)C(c3cccnc3)=CCC12 (stereo partly drawn) [Compound 335, (10R,13S)-10,13-dimethyl-17-(pyridin-3-yl)-6-(1H-1,2,3-triazol-1-yl)-6,7,8,9,10,11,12,13,14,15-decahydro-1H-cyclopenta[a]phenanthren-3(2H)-one] | 10 to 50% | > 1000 nM
C[C@]12CCC(=O)C=C1C(n1nccn1)CC1C2CC[C@]2(C)C(c3cccnc3)=CCC12 (stereo partly drawn) [Compound 336, (10R,13S)-10,13-dimethyl-17-(pyridin-3-yl)-6-(2H-1,2,3-triazol-2-yl)-6,7,8,9,10,11,12,13,14,15-decahydro-1H-cyclopenta[a]phenanthren-3(2H)-one] | < 10% | > 1000 nM
C[C@]12CCC(=O)C=C1C(c1ccccc1)CC1C2CC[C@]2(C)C(c3cncc(F)c3)=CCC12 (stereo partly drawn) [Compound 337, (10R,13S)-17-(5-fluoropyridin-3-yl)-10,13-dimethyl-6-phenyl-6,7,8,9,10,11,12,13,14,15-decahydro-1H-cyclopenta[a]phenanthren-3(2H)-one] | < 10% | > 1000 nM
C[C@]12CCC(=O)C=C1C(c1ccccc1)CC1C2CC[C@]2(C)C(c3cccnc3)=CCC12 (stereo partly drawn) [Compound 338, (10R,13S)-10,13-dimethyl-6-phenyl-17-(pyridin-3-yl)-6,7,8,9,10,11,12,13,14,15-decahydro-1H-cyclopenta[a]phenanthren-3(2H)-one] | < 10% | > 1000 nM
C[C@]12CCC(=O)C=C1C(C1CC1)C[C@@H]1[C@@H]2CC[C@]2(C)C(c3cccnc3)=CC[C@@H]12 (stereo partly drawn) [Compound 339, (10R,13S)-6-cyclopropyl-10,13-dimethyl-17-(pyridin-3-yl)-6,7,8,9,10,11,12,13,14,15-decahydro-1H-cyclopenta[a]phenanthren-3(2H)-one] | < 10% | > 1000 nM
CC1CC2C(CC[C@]3(C)C(c4cncc(C(F)F)c4)=CCC23)[C@@]2(C)CCC(=O)C=C12 (stereo partly drawn) [Compound 341, (10R,13S)-17-(5-(difluoromethyl)pyridin-3-yl)-6,10,13-trimethyl-6,7,8,9,10,11,12,13,14,15-decahydro-1H-cyclopenta[a]phenanthren-3(2H)-one] | 10 to 50% | > 1000 nM
C[C@]12CC[C@H]3[C@@H](CC(C4CC4)C4=CC(=O)CC[C@@]43C)C1=CC=C2c1cccnc1 (stereo partly drawn) [Compound 343, (10R,13S)-6-cyclopropyl-10,13-dimethyl-17-(pyridin-3-yl)-6,7,8,9,10,11,12,13-octahydro-1H-cyclopenta[a]phenanthren-3(2H)-one] | 10 to 50% | > 100 nM
C[C@]12CC[C@H]3[C@@H](CC(c4ccccc4)C4=CC(=O)CC[C@@]43C)C1=CC=C2c1cccnc1 (stereo partly drawn) [Compound 344, (10R,13S)-10,13-dimethyl-6-phenyl-17-(pyridin-3-yl)-6,7,8,9,10,11,12,13-octahydro-1H-cyclopenta[a]phenanthren-3(2H)-one] | 10 to 50% | > 1000 nM
CC1C[C@@H]2[C@H](CC[C@]3(C)C(c4cncc(C(F)F)c4)=CC[C@@H]23)[C@@]2(C)C=CC(=O)C=C12 (stereo partly drawn) [Compound 346, (10R,13S)-17-(5-(difluoromethyl)pyridin-3-yl)-6,10,13-trimethyl-6,7,8,9,10,11,12,13,14,15-decahydro-3H-cyclopenta[a]phenanthren-3-one] | 10 to 50% | > 1000 nM
C[C@]12CCC3C(CCC4=CC(=O)CC[C@@]43C)C1=CC=C2c1ccc(F)nc1 (stereo partly drawn) [Compound 355, (10R,13S)-17-(6-fluoropyridin-3-yl)-10,13-dimethyl-6,7,8,9,10,11,12,13-octahydro-1H-cyclopenta[a]phenanthren-3(2H)-one] | 10 to 50% | > 1000 nM
Cc1cnc(F)c(C2=CCC3C4CCC5=CC(=O)CC[C@]5(C)C4CC[C@]23C)c1 (stereo partly drawn) [Compound 356, (10R,13S)-17-(2-fluoro-5-methylpyridin-3-yl)-10,13-dimethyl-6,7,8,9,10,11,12,13,14,15-decahydro-1H-cyclopenta[a]phenanthren-3(2H)-one] | 10 to 50% | > 1000 nM
C[C@]12CCC3C(CCC4=CC(=O)CC[C@@]43C)C1=CC=C2c1cncc(Cl)c1 (stereo partly drawn) [Compound 359, (10R,13S)-17-(5-chloropyridin-3-yl)-10,13-dimethyl-6,7,8,9,10,11,12,13-octahydro-1H-cyclopenta[a]phenanthren-3(2H)-one] | 10 to 50% | > 1000 nM
C[C@]12CCC(=NO)C=C1C1(CC1)C[C@@H]1[C@@H]2CC[C@]2(C)C(c3cccnc3)=CC[C@@H]12 [Compound 362, (6cR,8aS)-10,13-dimethyl-17-(pyridin-3-yl)-1,7,8,9,10,11,12,13,14,15-decahydrospiro[cyclopenta[a]phenanthrene-6,1′-cyclopropan]-3(2H)-one oxime] | 10 to 50% | > 100 nM
CC1(C)C2=CCC3C(CC[C@]4(C)C(c5cccnc5)=CCC34)[C@@]2(C)CC/C1=N\O (stereo partly drawn) [Compound 363, (10R,13S,E)-4,4,10,13-tetramethyl-17-(pyridin-3-yl)-4,7,8,9,10,11,12,13,14,15-decahydro-1H-cyclopenta[a]phenanthren-3(2H)-one oxime] | < 10% | > 1000 nM
C[C@]12C=CC(=NO)C=C1C1(CC1)C[C@@H]1[C@@H]2CC[C@]2(C)C(c3cccnc3)=CC[C@@H]12 [Compound 365, (6cR,8aS)-10,13-dimethyl-17-(pyridin-3-yl)-7,8,9,11,12,13,14,15-octahydrospiro[cyclopenta[a]phenanthrene-6,1′-cyclopropan]-3(10H)-one oxime] | 10 to 50% | > 100 nM
C[C@]12CCC(=NO)C=C1C(F)CC1C2CC[C@]2(C)C(c3cccnc3)=CCC12 (stereo partly drawn) [Compound 366, (10R,13S)-6-fluoro-10,13-dimethyl-17-(pyridin-3-yl)-6,7,8,9,10,11,12,13,14,15-decahydro-1H-cyclopenta[a]phenanthren-3(2H)-one oxime] | 10 to 50% | > 1000 nM
CC1CC2C(CC[C@]3(C)C(c4cccnc4)=CCC23)[C@@]2(C)C=CC(=NO)C=C12 (stereo partly drawn) [Compound 367, (10R,13S)-6,10,13-trimethyl-17-(pyridin-3-yl)-6,7,8,9,10,11,12,13,14,15-decahydro-3H-cyclopenta[a]phenanthren-3-one oxime] | 10 to 50% | > 1000 nM
CC1CC2C3=CC=C(c4ccc(F)nc4)[C@@]3(C)CCC2[C@@]2(C)CCNC(=O)C=C12 (stereo partly drawn) [Compound 385, (5aR,7aS)-8-(6-fluoropyridin-3-yl)-5a,7a,12-trimethyl-3,4,5,5a,5b,6,7,7a,11,12-decahydrocyclopenta[5,6]naphtho[1,2-d]azepin-2(10bH)-one] | 10 to 50% | > 1000 nM
C[C@]12CCC3C(CCC45CC4NC(=O)CC[C@]35C)C1CC=C2c1cccnc1 (stereo partly drawn) [Compound 387, (5aR,7aS)-5a,7a-dimethyl-8-(pyridin-3-yl)-1a,2,4,5,5a,5b,6,7,7a,10,10a,10b,11,12-tetradecahydrocyclopenta[5,6]naphtho[2,1-c]cyclopropa[b]azepin-3(1H)-one] | < 10% | > 1000 nM
